Results: ChEMBL document CHEMBL5143625, “Isolation, synthesis and bioactivity evaluation of isoquinoline alkaloids from Corydalis hendersonii Hemsl. against gastric cancer in vitro and in vivo” (Bioorg Med Chem, 2022)

How the values were obtained:
MGC-803 [1] = assay: Antiproliferative activity against human MGC-803 cells assessed as reduction in cell viability after 24 hrs by MTT assay; type: functional, cell-based; conditions: MGC-803, 24 h
HGC-27 = assay: Antiproliferative activity against human HGC-27 cells assessed as reduction in cell viability after 24 hrs by MTT assay; type: functional, cell-based; conditions: HGC-27, 24 h
GES1 = assay: Antiproliferative activity against human GES1 cells assessed as reduction in cell viability after 24 hrs by MTT assay; type: functional, cell-based; conditions: GES1, 24 h
[2] = Toxicity in immunodeficient nude mouse xenografted with human MGC-803 cells assessed as reduction in body weight at 10 mg/kg, ip administered for 3 weeks relative to control; type: organism-based; set-up: scale not given: the % may be the effect or the level left; conditions: in vivo, 504 h
MGC-803 [3] = assay: Antitumor activity against human MGC-803 cells xenografted in immunodeficient nude mouse assessed as tumor volume at 10 mg/kg, ip administered for 3 weeks (reference value: 1039.6 mm3); type: functional
MGC-803 [4] = assay: Antitumor activity against human MGC-803 cells xenografted in immunodeficient nude mouse assessed as tumor weight at 10 mg/kg, ip administered for 3 weeks (reference value: 157.8 mg); type: functional

Row | SMILES | IC50 (MGC-803 [1]) [µM] | IC50 (HGC-27) [µM] | IC50 (GES1) [µM] | Activity [2] [%] | Activity (MGC-803 [3]) [mm3] | Activity (MGC-803 [4]) [mg]
1 | O=C1NCCc2cc3c(cc21)OCO3 [NOROXYHYDRASTININE] | > 150 | 120 | > 150 |  |  | 
2 | c1cc2c(c3c1CC1c4cc5c(cc4CCN1C3)OCO5)OCO2 (stereo not drawn) | 107 | 55.1 | > 150 |  |  | 
3 | O=c1[nH]cc(F)c(=O)[nH]1 [FLUOROURACIL] | 28.6 | 45.2 | 49.6 | 14.2 | 375.4 | 157.8
4 | COc1cc2c(cc1Cc1nccc3cc4c(cc13)OCO4)OCO2 | > 150 | 122 | > 150 |  |  | 
5 | CN1CCc2cc3c(cc2[C@H]1[C@H]1OC(=O)c2c1ccc1c2OCO1)OCO3 | > 150 | 100 | > 150 |  |  | 
6 | CCOC(=O)c1c(C(=O)c2nccc3cc4c(cc23)OCO4)ccc2c1OCO2 | 76 | 66.1 | 147 |  |  | 
7 | COc1cc2c(cc1O)C1Cc3ccc4c(c3CN1CC2)OCO4 (stereo not drawn) [CHEILANTHIFOLINE] | 83.2 | 38.3 | 114 |  |  | 
8 | CN1CCc2cc3c(cc2C(=O)Cc2ccc4c(c2C1)OCO4)OCO3 | 94.5 | 121 | > 150 |  |  | 
9 | COc1cc2c(cc1C(=O)c1nccc3cc4c(cc13)OCO4)OCO2 | 7.8 | 9.3 | 76 |  |  | 
10 | COc1ccc2c(c1OC)CN(C)CCc1cc3c(cc1C(=O)C2)OCO3 [ALLOCRYPTOPINE] | 109 | 97.8 | > 150 |  |  | 
11 | COc1cc2c(cc1OC)C1Cc3ccc4c(c3CN1CC2)OCO4 (stereo not drawn) | 94.3 | 81 | > 150 |  |  | 
12 | O=c1c2c3c(ccc2cc2n1CCc1cc4c(cc1-2)OCO4)OCO3 | 61.5 | 54.6 | > 150 |  |  | 
13 | CC(=O)c1ccc2c(c1Cn1ccc3cc4c(cc3c1=O)OCO4)OCO2 | 79.9 | 53.8 | 137 |  |  | 
14 | COc1cc2c(cc1O)[C@@H]1Cc3ccc(OC)c(O)c3CN1CC2 [SCOULERINE] | 12.6 | 6.1 | 95.3 |  |  | 
15 | COc1cc(/C=C/C(=O)NCCc2ccc(O)cc2)ccc1O [N-TRANS-FERULOYL TYRAMINE] | 98.3 | 84.5 | > 150 |  |  | 
